The values below come from article PMC5298231, “The Malaria Parasite's Lactate Transporter PfFNT Is the Target of Antiplasmodial Compounds Identified in Whole Cell Phenotypic Screens” (PLoS Pathogens, 2017).

Peptide text beside a SMILES is read from it.

This test has as its system erythrocytes infected with 3D7 trophozoites. Type of test: cell-based, Plasmodium falciparum. The conditions noted are these: sheet Ratio; for Ratio of metabolite abundance, Exp1_1hr: Exp1, 1hr; for Ratio of metabolite abundance, Exp1_3hr: Exp1, 3hr; for Ratio of metabolite abundance, Exp1_6hr: Exp1, 6hr; for Ratio of metabolite abundance, Exp2_1hr: Exp2, 1hr; for Ratio of metabolite abundance, Exp2_3hr: Exp2, 3hr; for Ratio of metabolite abundance, Exp2_6hr: Exp2, 6hr; for Ratio of metabolite abundance, Exp3_1hr: Exp3, 1hr; for Ratio of metabolite abundance, Exp3_3hr: Exp3, 3hr; for Ratio of metabolite abundance, Exp3_6hr: Exp3, 6hr.

On to `O=C[C@H](O)[C@H](O)[C@H](O)COP(=O)(O)O` [Ribose-5-phosphate], for which the “Ratio of metabolite abundance, Exp1_1hr” value was 2.775; the “Ratio of metabolite abundance, Exp1_3hr” value is given as 3.2124; the “Ratio of metabolite abundance, Exp1_6hr” value worked out at 2.288; the “Ratio of metabolite abundance, Exp2_1hr” value was 1.429. Also, the “Ratio of metabolite abundance, Exp2_3hr” value was 1.2203; the “Ratio of metabolite abundance, Exp2_6hr” value amounted to 1.178; the “Ratio of metabolite abundance, Exp3_1hr” value is 1.678; the “Ratio of metabolite abundance, Exp3_3hr” value worked out at 1.594. Also, the “Ratio of metabolite abundance, Exp3_6hr” value stood at 1.155.
As to `Nc1ncnc2c1ncn2[C@@H]1O[C@H](CSCC[C@H](N)C(=O)O)[C@@H](O)[C@H]1O` [S-Adenosyl-L-homocysteine], the “Ratio of metabolite abundance, Exp1_1hr” value is given as 0.9683; the “Ratio of metabolite abundance, Exp1_3hr” value came out at 0.7021; the “Ratio of metabolite abundance, Exp1_6hr” value came to 0.8395; the “Ratio of metabolite abundance, Exp2_1hr” value is 0.9429. The “Ratio of metabolite abundance, Exp2_3hr” value amounted to 0.8753; the “Ratio of metabolite abundance, Exp2_6hr” value is 1.175; the “Ratio of metabolite abundance, Exp3_1hr” value came to 0.839; the “Ratio of metabolite abundance, Exp3_3hr” value came to 0.8468. Besides, the “Ratio of metabolite abundance, Exp3_6hr” value is 0.8042.
As for `CC(C)C[C@H](NC(=O)CNC(=O)[C@H](CC(=O)O)NC(=O)[C@@H](N)CO)C(=O)N[C@@H](C)C(=O)O` [SDGLA] (H-SDGLA-OH), the “Ratio of metabolite abundance, Exp1_1hr” value is on record as 0.8703; the “Ratio of metabolite abundance, Exp1_3hr” value is listed as 0.6348; the “Ratio of metabolite abundance, Exp1_6hr” value turned out to be 0.4701; the “Ratio of metabolite abundance, Exp2_1hr” value came out at 0.9687. The “Ratio of metabolite abundance, Exp2_3hr” value is recorded as 0.9448; the “Ratio of metabolite abundance, Exp2_6hr” value is 0.8041; the “Ratio of metabolite abundance, Exp3_1hr” value is recorded as 0.872; the “Ratio of metabolite abundance, Exp3_3hr” value worked out at 0.7497. Also, the “Ratio of metabolite abundance, Exp3_6hr” value amounted to 0.5099.
With `N[C@@H](CO)C(=O)N[C@@H](Cc1ccccc1)C(=O)NCC(=O)N[C@@H](CC(=O)O)C(=O)O` [SFGD] (H-SFGD-OH), the “Ratio of metabolite abundance, Exp1_1hr” value is 0.9984; the “Ratio of metabolite abundance, Exp1_3hr” value was found to be 0.657; the “Ratio of metabolite abundance, Exp1_6hr” value was determined as 0.8343; the “Ratio of metabolite abundance, Exp2_1hr” value came to 0.9574. For the same molecule, the “Ratio of metabolite abundance, Exp2_3hr” value came out at 0.8881; the “Ratio of metabolite abundance, Exp2_6hr” value turned out to be 0.8874; the “Ratio of metabolite abundance, Exp3_1hr” value was determined as 0.972; the “Ratio of metabolite abundance, Exp3_3hr” value came to 0.9269. Further, the “Ratio of metabolite abundance, Exp3_6hr” value amounted to 0.9926.
Take `O=C(COP(=O)(O)O)[C@@H](O)[C@H](O)[C@H](O)[C@H](O)COP(=O)(O)O` [Sedoheptoluse bisphosphate]: the “Ratio of metabolite abundance, Exp1_1hr” value is given as 2.263; the “Ratio of metabolite abundance, Exp1_3hr” value was determined as 0.7031; the “Ratio of metabolite abundance, Exp1_6hr” value worked out at 0.6514; the “Ratio of metabolite abundance, Exp2_1hr” value amounted to 1.522. In addition, the “Ratio of metabolite abundance, Exp2_3hr” value stood at 1.277; the “Ratio of metabolite abundance, Exp2_6hr” value stood at 0.7611; the “Ratio of metabolite abundance, Exp3_1hr” value was determined as 1.031; the “Ratio of metabolite abundance, Exp3_3hr” value came out at 0.8186. In addition, the “Ratio of metabolite abundance, Exp3_6hr” value is reported as 0.6336.
As to `O=CCCC(=O)O` [Succinate semialdehyde], the “Ratio of metabolite abundance, Exp1_1hr” value came to 0.6229; the “Ratio of metabolite abundance, Exp1_3hr” value worked out at 0.6245; the “Ratio of metabolite abundance, Exp1_6hr” value came to 0.614; the “Ratio of metabolite abundance, Exp2_1hr” value turned out to be 0.9462. Besides, the “Ratio of metabolite abundance, Exp2_3hr” value is listed as 0.5836; the “Ratio of metabolite abundance, Exp2_6hr” value is listed as 0.7757; the “Ratio of metabolite abundance, Exp3_1hr” value was 0.7696; the “Ratio of metabolite abundance, Exp3_3hr” value was found to be 0.6244. In addition, the “Ratio of metabolite abundance, Exp3_6hr” value was found to be 0.8444.
